biological target: T1, His6-TEV-PPARγ-(234-505) (Homo sapiens, UniProt P37231); experiment: TR-FRET Assay to Measure Co-R Peptide Recruitment to PPARγ; type: biochemical; settings: Co-R peptide recruitment to PPARγ; read-out: TR-FRET AC50
T1 construct: The His6-TEV-PPARγ-(234-505) protein for assay was expressed and purified; TEV cleavage site (N); made in house
T1 sequence (P37231 234-505): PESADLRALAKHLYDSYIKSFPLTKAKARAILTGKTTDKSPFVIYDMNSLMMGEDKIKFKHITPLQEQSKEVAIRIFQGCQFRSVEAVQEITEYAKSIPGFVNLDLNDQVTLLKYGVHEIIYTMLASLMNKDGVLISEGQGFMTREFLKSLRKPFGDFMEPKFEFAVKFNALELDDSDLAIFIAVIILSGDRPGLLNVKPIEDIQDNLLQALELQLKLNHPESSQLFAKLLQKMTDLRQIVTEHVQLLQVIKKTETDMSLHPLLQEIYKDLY
Procedure, shortened: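 Corepressor recruitment is measured by adding terbium-labeled anti-His antibody and FITC SMRT-ID2 peptide, at 5 and 200 nM final, after a 20-minute room-temperature protein–compound incubation. After one further hour, signal is converted to percent response between DMSO and 500 nM T0070907 wells.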

AC50, > 1000 nM:
CC(C)(C)c1csc(CNC(=O)C2CCN(C(=O)c3cc(-c4ccncc4)[nH]n3)CC2)n1 [N-[(4-tert-butyl-1,3-thiazol-2-yl)methyl]-1-[5-(pyridin-4-yl)-1H-pyrazole-3-carbonyl]piperidine-4-carboxamide]
CC(C)(C)c1ccc(CNC(=O)C2CCN(C(=O)c3cc(-c4ccncc4)[nH]n3)CC2)cc1 [N-[(4-tert-butylphenyl)methyl]-1-[5-(pyridin-4-yl)-1H-pyrazole-3-carbonyl]piperidine-4-carboxamide]
CN(Cc1ccc(C(C)(C)C)cc1)C(=O)C1CCN(C(=O)c2cc(-c3ccncc3)[nH]n2)CC1 [N-[(4-tert-butylphenyl)methyl]-N-methyl-1-[5-(pyridin-4-yl)-1H-pyrazole-3-carbonyl]piperidine-4-carboxamide]
Cc1cc(CNC(=O)C2CCN(C(=O)c3cc(-c4ccncc4)[nH]n3)CC2)cnc1C [N-[(5,6-dimethylpyridin-3-yl)methyl]-1-[5-(pyridin-4-yl)-1H-pyrazole-3-carbonyl]piperidine-4-carboxamide]
COc1ccc(Cl)cc1CNC(=O)C1CCN(C(=O)c2cc(-c3ccncc3)[nH]n2)CC1 [N-[(5-chloro-2-methoxyphenyl)methyl]-1-[5-(pyridin-4-yl)-1H-pyrazole-3-carbonyl]piperidine-4-carboxamide]
Cc1nc(CNC(=O)C2CCN(C(=O)c3cc(-c4ccncc4)[nH]n3)CC2)no1 [N-[(5-methyl-1,2,4-oxadiazol-3-yl)methyl]-1-[5-(pyridin-4-yl)-1H-pyrazole-3-carbonyl]piperidine-4-carboxamide]
CC(C)(C)c1ccc(CNC(=O)C2CCN(C(=O)c3cc(-c4ccncc4)[nH]n3)CC2)cn1 [N-[(6-tert-butylpyridine-3-yl)methyl]1-[5-(pyridin-4-yl)-1H-pyrazole-3-carbonyl]piperidine-4-carboxamide]
O=C(NCc1ccccc1)C1CCN(C(=O)c2cc(-c3ccncc3)[nH]n2)CC1 [N-benzyl-1-[5-(pyridin-4-yl)-1H-pyrazole-3-carbonyl]piperidine-4-carboxamide]
CN(Cc1ccccc1)C(=O)C1CCN(C(=O)c2cc(-c3ccncc3)[nH]n2)CC1 [N-benzyl-N-methyl-1-[5-(pyridin-4-yl)-1H-pyrazole-3-carbonyl]piperidine-4-carboxamide]
O=C(NC1CCCCC1)C1CCN(C(=O)c2cc(-c3ccncc3)[nH]n2)CC1 [N-cyclohexyl-1-[5-(pyridin-4-yl)-1H-pyrazole-3-carbonyl]piperidine-4-carboxamide]
O=C(NC1CCCC1)C1CCN(C(=O)c2cc(-c3ccncc3)[nH]n2)CC1 [N-cyclopentyl-1-[5-(pyridin-4-yl)-1H-pyrazole-3-carbonyl]piperidine-4-carboxamide]
O=C(NC1CC1)C1CCCN(C(=O)c2cc(-c3ccncc3)[nH]n2)C1 (stereo not shown) [N-cyclopropyl-1-[5-(pyridin-4-yl)-1H-pyrazole-3-carbonyl]piperidine-3-carboxamide]
O=C(NC1CC1)C1CCN(C(=O)c2cc(-c3ccncc3)[nH]n2)CC1 [N-cyclopropyl-1-[5-(pyridin-4-yl)-1H-pyrazole-3-carbonyl]piperidine-4-carboxamide]
CCNC(=O)C1CCN(C(=O)c2cc(-c3ccncc3)[nH]n2)CC1 [N-ethyl-1-[5-(pyridin-4-yl)-1H-pyrazole-3-carbonyl]piperidine-4-carboxamide]
CNC(=O)CN1CCN(C(=O)C2CCN(C(=O)c3cc(-c4ccncc4)[nH]n3)CC2)CC1 [N-methyl-2-(4-{1-[5-(pyridin-4-yl)-1H-pyrazole-3-carbonyl]piperidine-4-carbonyl}piperazin-1-yl)acetamide]
CN1CCC(N(C)C(=O)C2CCN(C(=O)c3cc(-c4ccncc4)[nH]n3)CC2)CC1 [N-methyl-N-(1-methylpiperidin-4-yl)-1-[5-(pyridin-4-yl)-1H-pyrazole-3-carbonyl]piperidine-4-carboxamide]

From patent US12606541B2, “PPARg modulators and methods of use” (Eisai R&D Management Co., Ltd., priority 2020, dated 2026)
